Assay results: patent US12545668B2, “Cyclic amine derivative as agent for promoting advillin function, and novel cyclic amine derivative and pharmaceutical use thereof” (Toray Industries, Inc., priority 2018, dated 2026)

System: primary cultured cells of rat dorsal root ganglion
Assay: Axon (neurite) extension in primary cultured cells of rat dorsal root ganglion with oxaliplatin-induced axonal injury
Format: cell-based
Settings: 7 days
Description: The effect of the cyclic amine derivative (I) or a pharmacologically acceptable salt thereof on neurite extension in primary cultured cells of rat dorsal root ganglion was examined.
Male SD rats (manufactured by Charles River Laboratories Japan, Inc.) of 4 to 7 weeks old were used. Each rat was anesthetized by intraperitoneally administering urethane. After confirming that the rat was anesthetized, the rat was rapidly euthanized by exsanguination from the abdominal aorta. After incision of the dorsal part, the spinal column was excised and cooled on ice. The dorsal side of the spinal column was cut off, and the spinal cord was removed from the ventral side of the spinal column to expose the dorsal root ganglia on the ventral side of the spinal column. The dorsal root ganglia (L3 to 6, right and left) were excised with tweezers, and dipped in ice-cold Leibovitz's L-15 medium (manufactured by Thermo Fisher Scientific), and the bundles of nerve fibers were removed under a stereoscopic microscope. The dorsal root ganglia from which the bundles of nerve fibers had been removed were made fine slits with ophthalmic scissors to be used as dorsal root ganglion pieces.
The dorsal root ganglion pieces were dipped in about 3 mL of a solution of collagenase A (manufactured by Roche Molecular Systems, Inc.), followed by incubation at 37° C. for 20 minutes. After the incubation, the resultant was centrifuged at 200×g at 25° C. for 5 minutes to remove a collagenase A solution corresponding to the supernatant. About 1 mL of a solution of trypsin was added thereto, followed by incubation at 37° C. for 5 minutes. Subsequently, about 3 mL of DMEM (manufactured by Thermo Fisher Scientific K.K.) containing 10% fetal bovine serum was added to the resultant, the resultant centrifuged at 200×g at room temperature for 5 minutes, and then the supernatant removed. […]

## CN(C)C1CCN(C(=O)C[C@H](O)c2nccn2C)CC1 [Example 7, (S)-1-(4-(dimethylamino)piperidin-1-yl)-3-hydroxy-3-(1-methyl-1H-imidazol-2-yl)propan-1-one]
100 μM with oxaliplatin 3 μM, FIG. 4, FIG. 5, p<0.025 Williams
  length of a neurite compared to the oxaliplatin alone treated group: significantly increased
10, 30 or 100 μM with oxaliplatin 3 μM, FIG. 5
  length of a neurite compared to the oxaliplatin alone treated group: found to increase
